This note sets out measurements from patent US10253002B2, “Compounds and methods of treating infections” (Neoculi Pty Ltd., priority 2013, dated 2019).

Test [1] relates to S. aureus isolates (HA-MRSA, CA-MRSA, methicillin-susceptible staphylococci). The experiment in a line: Kirby-Bauer disc diffusion resistotyping, Example 4. Format: cell-based, Staphylococcus aureus. The method, then: Antibiotic-susceptibility profiling of the isolate collection was undertaken using Kirby-Bauer disc diffusion, as recommended by the Clinical and Laboratory Standards Institute (CLSI) on Mueller-Hinton agar. Isolates were grown overnight on SBA at 37° C. Colonies were suspended in physiological saline. Turbidity was adjusted to a 0.5 McFarland standard and suspensions were spread over the medium. Antibiotic discs according to Table 9 below were transferred onto the inoculated medium and analysed after 24 h incubation at 37° C.

Test [2] has as its system Staphylococcus pseudintermedius isolates (MSSP and MRSP). Briefly: Disk diffusion and Epsilometer susceptibility testing, Example 6. Type of test: cell-based. The following applies: 13 MRSP isolates.

On to `CO[C@@]1(NC(=O)C2SC(=C(C(N)=O)C(=O)O)S2)C(=O)N2C(C(=O)O)=C(CSc3nnnn3C)CS[C@@H]21` (some centres unmarked) [Cefotetan], for which the “isolates resistant (Kirby-Bauer disc diffusion)” value was determined as 20.00% in test [1] (CA-MRSA (n = 10)), 80.00% in test [1] (HA-MRSA (n = 10)) and 0.00% in test [1] (Methicillin-susceptible staphylococci (n = 10)). Further, the “resistant isolates, number (percentage)” value is 2 (100%) in test [1] (Unclassified (n = 2), Overall); 4 (100%) in test [1] (mec gene complex A (n = 4), Overall); 3 (100%) in test [1] (mec gene complex A (n = 4), SCCmec type II); 1 (100%) in test [1] (mec gene complex A (n = 4), SCCmec type III); 2 (20%) in test [1] (mec gene complex B (n = 10), Overall); 1 (50%) in test [1] (mec gene complex B (n = 10), SCCmec type I). The “resistant isolates, number (percentage)” value in test [1] (mec gene complex B (n = 10), SCCmec type IV) is given as 1 (12.5%); in test [1] (mec gene complex C2 (n = 4), Overall) it was 2 (50%); in test [1] (mec gene complex C2 (n = 4), SCCmec type V) it was 2 (50%). Besides, the “Total isolates resistant (Kirby-Bauer disc diffusion)” value in test [1] (all isolates (n = 30)) is 33.33%. The molecule also registered an MRSP isolates susceptible in test [2] of 92%.
